Results on 15 compounds are retold here after patent US10723741B1, “DNA polymerase IIIC inhibitors and use thereof” (Acurx Pharmaceuticals, LLC, priority 2018, dated 2020).

Common to all, as to format: cell-based
The test system of assay [1] is Staphylococcus aureus NRS384 (MRSA). The assay can be described thus: Broth microdilution MIC, S. aureus NRS384 (MRSA). Details: MIC NRS 384 (MRSA): unit not given here. The note with it: broth microdilution, 37° C., 20 hours; for MIC: Staphylococcus aureus, read-out: MIC NRS 384 (MRSA). The method in brief: (§1)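 Two-fold dilutions from 64 to 0.0625 μg/ml final, 1% DMSO, were inoculated at ~5.0×10^5 cfu/ml in the strain's test medium and kept 20 h at 37 °C in ambient atmosphere. Colonies were grown on MHA, with S. pneumoniae on blood agar under 5% CO2.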

In assay [2] the test system is Staphylococcus aureus ATCC 29213 (MSSA). Description: Broth microdilution MIC, S. aureus ATCC 29213 (MSSA). The note with it: broth microdilution, 37° C., 20 hours, read-out: MIC S. aureus ATCC 29213 (MSSA). The method in brief:
as §1

Assay [3] deals with Enterococcus faecalis ATCC 29212. Description: Broth microdilution MIC, E. faecalis ATCC 29212. Particulars: ATCC29212, broth microdilution, 37° C., 20 hours, read-out: MIC E. faecalis ATCC 29212. The method in brief:
as §1

Assay [4] relates to Enterococcus faecium ATCC 700221 (VRE). The assay can be described thus: Broth microdilution MIC, E. faecium ATCC 700221 (VRE). Details: MIC E. faecium ATCC 700221 (VRE): unit: ug/mL. The note with it: broth microdilution, 37° C., 20 hours; for MIC: Enterococcus faecium, read-out: MIC E. faecium ATCC 700221 (VRE). The method in brief:
as §1

Assay [5] has as its system Streptococcus pneumoniae ATCC 49619. Description: Broth microdilution MIC, S. pneumoniae ATCC 49619. Particulars: ATCC49619, broth microdilution, 37° C., 20 hours, read-out: MIC S. pneumoniae ATCC 49619. The method in brief: as §1
Assay [6] deals with Bacillus subtilis ATCC 6633. The assay can be described thus: Broth microdilution MIC, B. subtilis ATCC 6633. The note with it: ATCC6633, broth microdilution, 37° C., 20 hours, read-out: MIC B. subtilis ATCC 6633. The method in brief: as §1
For assay [7], the system named is Escherichia coli ATCC 25922. Description: Broth microdilution MIC, E. coli ATCC 25922 (MHIIB w & w/o 4 mM EDTA). The note with it: broth microdilution, 37° C., 20 hours; for MIC: Escherichia coli, ATCC25922, without EDTA, read-out: MIC E. coli ATCC 25922; for MIC E. coli ATCC 25922 + 4 mM EDTA: with 4 mM EDTA. The method in brief: as §1

Values after ≈ are worked out from the molar mass of the structure shown.

Take `O=c1[nH]c(NCc2ccc(Cl)c(Cl)c2)nc2cn(Cc3ccccc3)nc12` [Compound 129, 2-Benzyl-5-((3,4-dichlorobenzyl)amino)-2H-pyrazolo[4,3-d]pyrimidin-7(6H)-one]: the minimal inhibitory concentration (MIC) in assay [1], in assay [2], in assay [3], in assay [4], in assay [5] and in assay [6] was above 64 µg/mL each time. In assay [7], the MIC is above 64 µg/mL. In assay [7], the “MIC E. coli ATCC 25922 + 4 mM EDTA” value was above 64 µg/mL.

Take `N#CCOCCn1ncc2nc(NCc3ccc(Cl)c(Cl)c3)[nH]c(=O)c21` [Compound 285, 2-(2-(5-((3,4-dichlorobenzyl)amino)-7-oxo-6,7-dihydro-1H-pyrazolo[4,3-d]pyrimidin-1-yl)ethoxy)acetonitrile]: the “MIC NRS 384 (MRSA)” value in assay [1] is 4/4. Further, the MIC in assay [2] is 4 µg/mL (≈ 10.2 µM); in assay [3] it was 4 µg/mL (≈ 10.2 µM); in assay [5], 4 µg/mL (≈ 10.2 µM); in assay [6], 1 µg/mL (≈ 2.54 µM); in assay [7], above 64 µg/mL. Further, the “MIC E. faecium ATCC 700221 (VRE)” value in assay [4] is given as 2/2. Further, the “MIC E. coli ATCC 25922 + 4 mM EDTA” value in assay [7] is above 64 µg/mL.

In the case of `Cn1nc(C2CCCO2)c2nc(NCc3ccc(Cl)c(Cl)c3)[nH]c(=O)c21` (stereo not drawn) [Compound 47, 5-((3,4-dichlorobenzyl)amino)-1-methyl-3-(tetrahydrofuran-2-yl)-1H-pyrazolo[4,3-d]pyrimidin-7(6H)-one], the MIC in assay [1] was 16 µg/mL (≈ 40.6 µM); in assay [2], 16 µg/mL (≈ 40.6 µM); in assay [3] it was above 64 µg/mL; in assay [4], 16 µg/mL (≈ 40.6 µM); in assay [5], 32 µg/mL (≈ 81.2 µM); in assay [6], 8 µg/mL (≈ 20.3 µM). Further, in assay [7], the minimum inhibitory concentration (MIC) is above 64 µg/mL. Besides, the “MIC E. coli ATCC 25922 + 4 mM EDTA” value in assay [7] is above 64 µg/mL.

In the case of `O=c1[nH]c(NCc2ccc(Cl)c(Cl)c2)nc2cnn(CC(O)CO)c12` (stereo not drawn) [Compound 75, 5-((3,4-dichlorobenzyl)amino)-1-(2,3-dihydroxypropyl)-1H-pyrazolo[4,3-d]pyrimidin-7(6H)-one], the MIC was 16 µg/mL (≈ 41.6 µM) in assay [1]; 16 µg/mL (≈ 41.6 µM) in assay [2]; 16 µg/mL (≈ 41.6 µM) in assay [3]; 8 µg/mL (≈ 20.8 µM) in assay [4]; 4 µg/mL (≈ 10.4 µM) in assay [5]; 8 µg/mL (≈ 20.8 µM) in assay [6]. In assay [7], the MIC is above 64 µg/mL. For the same compound, in assay [7], the “MIC E. coli ATCC 25922 + 4 mM EDTA” value was above 64 µg/mL.

As to `COC(=O)COCCOCCn1ncc2nc(NCc3ccc(Cl)c(Cl)c3)[nH]c(=O)c21` [Compound 186, methyl 2-(2-(2-(5-((3,4-dichlorobenzyl)amino)-7-oxo-6,7-dihydro-1H-pyrazolo[4,3-d]pyrimidin-1-yl)ethoxy)ethoxy)acetate], the minimal inhibitory concentration (MIC) is 8 µg/mL (≈ 17 µM) in assay [1]; 16 µg/mL (≈ 34 µM) in assay [2]; 16 µg/mL (≈ 34 µM) in assay [3]; 4 µg/mL (≈ 8.5 µM) in assay [4]; above 64 µg/mL in assay [5]; 4 µg/mL (≈ 8.5 µM) in assay [6]. For the same compound, the MIC in assay [7] is above 64 µg/mL. Also, the “MIC E. coli ATCC 25922 + 4 mM EDTA” value in assay [7] was above 64 µg/mL.

As to `Cl.O=C(O)C1CC(n2ncc3nc(NCc4ccc(Cl)c(Cl)c4)[nH]c(=O)c32)CN1C(=O)c1ccncc1` (stereo not drawn) [Compound 150, 4-(5-((3,4-dichlorobenzyl)amino)-7-oxo-6,7-dihydro-1H-pyrazolo[4,3-d]pyrimidin-1-yl)-1-isonicotinoylpyrrolidine-2-carboxylic acid hydrochloride], the MIC in assay [1], in assay [2], in assay [3], in assay [4], in assay [5] and in assay [6] was above 64 µg/mL each time. In addition, the minimum inhibitory concentration (MIC) in assay [7] is above 64 µg/mL. In assay [7], the “MIC E. coli ATCC 25922 + 4 mM EDTA” value was above 64 µg/mL.

`Cn1ncc2nc(NCc3ncccn3)[nH]c(=O)c21` [Compound 11, 1-Methyl-5-((pyrimidin-2-ylmethyl)amino)-1H-pyrazolo[4,3-d]pyrimidin-7(6H)-one]: the MIC in assay [1], in assay [2], in assay [3], in assay [4], in assay [5] and in assay [6] was above 64 µg/mL throughout. Further, the minimum inhibitory concentration (MIC) in assay [7] was above 64 µg/mL. The “MIC E. coli ATCC 25922 + 4 mM EDTA” value in assay [7] is above 64 µg/mL.

In the case of `O=C(O)CCCCn1nc(F)c2nc(NCc3ccc(F)c(F)c3)[nH]c(=O)c21` [Compound 210, 5-(5-((3,4-Difluorobenzyl)amino)-3-fluoro-7-oxo-6,7-dihydro-1H-pyrazolo[4,3-d]pyrimidin-1-yl)pentanoic acid], the minimal inhibitory concentration (MIC) in assay [1] came to 64 µg/mL (≈ 162 µM); in assay [2] it was 32 µg/mL (≈ 80.9 µM); in assay [3] it was 32 µg/mL (≈ 80.9 µM); in assay [4] it was 16 µg/mL (≈ 40.5 µM); in assay [5], 16 µg/mL (≈ 40.5 µM); in assay [6], 64 µg/mL (≈ 162 µM). Also, the MIC in assay [7] is above 64 µg/mL. For the same compound, the “MIC E. coli ATCC 25922 + 4 mM EDTA” value in assay [7] is above 64 µg/mL.

On to `Cn1ncc2nc(NCc3ccccc3Cl)[nH]c(=O)c21` [Compound 27, 5-((2-Chlorobenzyl)amino)-1-methyl-1H-pyrazolo[4,3-d]pyrimidin-7(6H)-one], for which the MIC in assay [1], in assay [2], in assay [3], in assay [4], in assay [5] and in assay [6] was above 64 µg/mL each time. Besides, the MIC in assay [7] was above 64 µg/mL. Besides, the “MIC E. coli ATCC 25922 + 4 mM EDTA” value in assay [7] was found to be 64 µg/mL.

In the case of `Cn1ncc2nc(NCc3ccccn3)[nH]c(=O)c21` [Compound 4, 1-Methyl-5-((pyridin-2-ylmethyl)amino)-1H-pyrazolo[4,3-d]pyrimidin-7(6H)-one], the MIC in assay [1], in assay [2], in assay [3], in assay [4], in assay [5] and in assay [6] was above 64 µg/mL each time. The MIC in assay [7] is above 64 µg/mL. The “MIC E. coli ATCC 25922 + 4 mM EDTA” value in assay [7] is above 64 µg/mL.

For the compound `Cc1ccc(CNc2nc3cnn(C)c3c(=O)[nH]2)cc1C` [Compound 33, 5-((3,4-Dimethylbenzyl)amino)-1-methyl-1H-pyrazolo[4,3-d]pyrimidin-7(6H)-one], the MIC in assay [1] was 16 µg/mL (≈ 56.5 µM); in assay [2], 16 µg/mL (≈ 56.5 µM); in assay [3], 32 µg/mL (≈ 113 µM); in assay [4] it was 16 µg/mL (≈ 56.5 µM); in assay [5] it was 16 µg/mL (≈ 56.5 µM); in assay [6] it was 8 µg/mL (≈ 28.2 µM). In assay [7], the minimal inhibitory concentration (MIC) was above 64 µg/mL. Moreover, the “MIC E. coli ATCC 25922 + 4 mM EDTA” value in assay [7] is above 64 µg/mL.

Consider `C[C@@H](O)Cn1ncc2nc(NCc3ccc(Cl)c(Cl)c3)[nH]c(=O)c21` [Compound 239, (R)-5-((3,4-dichlorobenzyl)amino)-1-(2-hydroxypropyl)-1H-pyrazolo[4,3-d]pyrimidin-7(6H)-one], for which the minimal inhibitory concentration (MIC) came to 4 µg/mL (≈ 10.9 µM) in assay [1]; 4 µg/mL (≈ 10.9 µM) in assay [2]; 8 µg/mL (≈ 21.7 µM) in assay [3]; 2 µg/mL (≈ 5.43 µM) in assay [4]; 8 µg/mL (≈ 21.7 µM) in assay [5]; 2 µg/mL (≈ 5.43 µM) in assay [6]. Besides, in assay [7], the minimum inhibitory concentration (MIC) was above 64 µg/mL. In addition, in assay [7], the “MIC E. coli ATCC 25922 + 4 mM EDTA” value was above 64 µg/mL.

On to `CN1CCN(CCn2ncc3nc(NCc4ccc(Cl)c(Cl)c4)[nH]c(=O)c32)CC1` [Compound 58, 5-((3,4-Dichlorobenzyl)amino)-1-(2-(4-methylpiperazin-1-yl)ethyl)-1H-pyrazolo[4,3-d]pyrimidin-7(6H)-one], for which the minimum inhibitory concentration (MIC) is 8 µg/mL (≈ 18.3 µM) in assay [1]; 16 µg/mL (≈ 36.7 µM) in assay [2]; 8 µg/mL (≈ 18.3 µM) in assay [3]; 4 µg/mL (≈ 9.17 µM) in assay [4]; 4 µg/mL (≈ 9.17 µM) in assay [5]; 2 µg/mL (≈ 4.58 µM) in assay [6]. Also, the minimum inhibitory concentration (MIC) in assay [7] was above 64 µg/mL. Besides, the “MIC E. coli ATCC 25922 + 4 mM EDTA” value in assay [7] was above 64 µg/mL.

`Cn1ncc2nc(Nc3ccc(Cl)c(Cl)c3)[nH]c(=O)c21` [Compound 9, 5-((3,4-Dichlorophenyl)amino)-1-methyl-1H-pyrazolo[4,3-d]pyrimidin-7(6H)-one]: the MIC in assay [1], in assay [2], in assay [3], in assay [4], in assay [5] and in assay [6] was above 64 µg/mL throughout. Moreover, in assay [7], the minimum inhibitory concentration (MIC) was above 64 µg/mL. Further, the “MIC E. coli ATCC 25922 + 4 mM EDTA” value in assay [7] is above 64 µg/mL.

As for `Cl.O=c1[nH]c(NCc2ccc(Cl)c(Cl)c2)nc2cnn(Cc3ccccn3)c12` [Compound 109, 5-((3,4-Dichlorobenzyl)amino)-1-(pyridin-2-ylmethyl)-1H-pyrazolo[4,3-d]pyrimidin-7(6H)-one hydrochloride], the minimum inhibitory concentration (MIC) in assay [1] is 64 µg/mL; in assay [2], above 64 µg/mL; in assay [3], above 64 µg/mL; in assay [4], 4 µg/mL; in assay [5], 4 µg/mL; in assay [6], 2 µg/mL. Also, in assay [7], the minimal inhibitory concentration (MIC) was above 64 µg/mL. The “MIC E. coli ATCC 25922 + 4 mM EDTA” value in assay [7] is above 64 µg/mL.
